Assays:
[1] = system: IL-1α; assay: IL-1α in LPS-stimulated cultured splenocytes from MPTP-injected mice; format: in vivo; details: mice treated 200 mg/kg for seven days; splenocytes cultured with LPS, cell lysate
Description: Seven days after MPTP-acute administration, peripheral blood and spleen were isolated from each mouse, and hematological changes in the peripheral blood and cytokine production in the spleen were evaluated. […] White blood cells, lymphocytes, monocytes, and granulocytes were measured from the peripheral blood using a HemaTrue cell counter (Heska, Loveland, CO). Spleens were isolated and mechanically passed through a 70 μm cell strainer (ThermoFisher) in PBS. Cells were plated in a 96-well plate at a concentration of 200,000 cells/well in RPMI medium (Coring, New York, NY) with 10% FBS. After that, cells were stimulated with LPS at 1 μg/ml and 5 μg/ml. RPMI medium was used as control. After 72 hours, supernatant was isolated to measure the levels of IL-6. Cells were lysed with RIPA buffer (ThermoFisher) supplemented with protease inhibitor (ThermoFisher) to measure IL-1α levels. In both cases, 5-6 mice per group were used.

[2] = system: MPTP-injected-mouse model of PD; assay: accelerating rotarod test after MPTP-acute administration; format: in vivo, C56BL/J mice
Description: MPTP (Sigma-Aldrich, St. Louis, MO) can be administered at two dose regimens: acute and sub-acute. For the acute regimen, MPTP was administered intraperitoneally (i.p.) four times in one day. Administrations were performed every two hours over an eight-hour period. For the subacute regimen, mice received a single i.p. administration of MPTP per day for five consecutive days. A 20 mg/kg free-base MPTP dose was used for every dose in both models. Sterile saline was used as the vehicle. Control mice were injected with saline solution using the same administration protocol and were defined as sham. Mice were sacrificed at different days after the first injection of MPTP. We used the acute protocol in C56BL/J mice to study dopamine neurodegeneration, inflammation, and motor deficits, whereas the subacute model was used to evaluate α-synuclein aggregation in the following examples. […]
The accelerating rotarod (Ugo Basile, Gemonio, ITALY) was used to evaluate locomotor function in mice subjected to the MPTP-acute administration. An accelerating program was selected to detect locomotor impairments associated to MPTP (Keshet et al, J Comp Neurol 504:690-701, 2007; Rui et al., Int J Neuropsychopharmacol., 2020). We used a rotarod device with a cylinder rod of three centimeters in diameter. The mice underwent a training period of three consecutive days prior to MPTP administration. In each training session, mice were subjected to run at four constant speeds (10 rpm, 20 rpm, 30 rpm, and 40 rpm) for 150 seconds at each speed. If mice fell during that time, they were put back in the rotarod immediately. On the testing day, we used an increased-speed program. Mice were placed on the rotarod device for 150 seconds at 30 rpm as warm up. Immediately after 150 seconds, the accelerating session started, and the speed increased from 30 rpm to 70 rpm for 500 seconds. Time to fall was recorded. Accelerating sessions were repeated three times with a resting interval of five minutes between sessions. Average time to fall per mouse was calculated and used as final measurement.
We then evaluated the effect of dapansutrile. To avoid overloading animals with fluid (which can lead to fatal heart failure), dapansutrile was administered through oral gavage at 200 mg/kg in water. Dapansutrile was given 30 minutes before the first injection of MPTP. Mice treated with saline were used as control. We also included a sham-group that received saline through intraperitoneal injections instead of MPTP. […]

[3] = system: TNFα; assay: TNFα RNA in the brain by qPCR after MPTP; format: in vivo, mice; details: 200 mg/kg oral gavage; striatum piece, 24 hours after first MPTP injection
Description: Mice were treated dapansutrile or saline and injected with MPTP as described in Example 2.
24 hours after the first injection of MPTP, mice were sacrificed. A piece of brain, centered in the striatum, was taken from each mouse and frozen in liquid nitrogen. Samples were homogenized with Trizol lysis reagent (Thermo Fisher) following the manufacturer's protocol. 1 μg of RNA from each sample was reversely transcribed using the High-Capacity Reverse Transcription kit (Applied BioSystems).
Gene expression measures were performed through qPCR using SYBR Green master mix (Applied Biosystems) and recommended thermal cycling parameters: 1 cycle of polymerase activation for 10 min at 95° C. and 40 cycles of denaturalization for 15 sec at 95° C. plus annealing/extension for 1 min at 60° ° C. (capture). Gene levels of TNFα (a pro-inflammatory cytokine) were normalized to the relation ratio of expression of the GADPH gene following the ΔΔCT method. Primers sequences are detailed below. Final fold-change values were obtained by normalization with naïve condition.

[4] = system: IL-18; assay: IL-18 in brain homogenates by ELISA after MPTP; format: in vivo, mice
Description: Mice were treated with dapansutrile or saline and injected with MPTP as described in Example 2.
At three days after MPTP, mice were sacrificed and levels of IL-18 in the brain were measured. Briefly, the brain was removed from the mouse and a piece of the striatum was homogenized. Levels of proteins were normalized to 2 mg/ml and IL-18 was measured using the mouse IL-18 ELISA from R and D Systems.
(§1) It has been reported that administration of MPTP induces the assembly of NLPR3 inflammasome in the brain. Mice were sacrificed after anesthesia by cervical dislocation at 4 and 7 days after MPTP administration. Brains were collected, and the striatum (St) and ventral midbrain (VM) areas of both hemispheres were excised and frozen in liquid nitrogen. Samples were homogenized in RIPA buffer (Thermo Fisher, Waltham, MA) supplemented with protease inhibitor (Thermo Fisher) using a TissueRuptor (Qiagen, Germantown, MD). Protein concentration was determined using a BCA Protein Assay Kit (Thermo Fisher) according to manufacturer's instructions. Samples were diluted to 2 mg/ml in the same extraction buffer.
(§2) Levels of IL-1β, IL-18, IL-6, and IL-17A from brain homogenates were measured by ELISA DuoSet kit (R&D Systems, Minneapolis, MN). ELISA kit for IL-1β detects 92-95% of the 17 kDa form and only 8-5% of the precursor form of this cytokine. 96-well plates (ThermoFisher Scientific) were coated with capture antibody. Samples were incubated for two hours at room temperature. Detection antibodies and streptavidin-HRP were added. TMB ELISA (cBioscience, San Diego, CA) was used as substrate solution. Results were measured in a microplate reader (Bio-Tek, Santa Clara, CA). Final values were normalized by the protein concentration of each sample. 4-5 mice per group were used for each cytokine.

[5] = system: IL-1β; assay: IL-1β in brain homogenates by ELISA after MPTP; format: in vivo, mice; details: 200 mg/kg once each day; 4 days after MPTP-acute
Text: as §1, §2

[6] = 200 mg/kg once a day, three days after MPTP-acute
[7] = 200 mg/kg oral gavage 30 minutes before first MPTP injection, day 3 after MPTP
[8] = 200 mg/kg once each day, four days after MPTP-acute

**Q.** How did the “reduction of the level of intracellular IL-1α in splenocytes” value [1] turn out when CS(=O)(=O)CCC#N [dapansutrile, 3-methanesulfonylpropionitrile] was run?
**A.** 40%

**Q.** And the “time to fall on accelerating rotarod versus MPTP+saline” value ([2]; 60 mg/kg once a day, three days after MPTP-acute)?
**A.** did not show any significant improvement

**Q.** And the “mice that reached 8 cm/s on the rotarod” value [2, 6]?
**A.** 7%

**Q.** What about the “mice that reached the 7 cm/s speed on the rotarod” value [2, 6] of the same compound?
**A.** approximately 50%

**Q.** What about the “time to fall on accelerating rotarod versus MPTP+saline” value [2, 6] of the same compound?
**A.** doubling

**Q.** What about the “time to fall on accelerating rotarod versus sham mice” value [2, 6] of the same compound?
**A.** nearly the same as the sham mice

**Q.** What about the “rotarod latency to fall, difference against sham group” value [2, 7] of the same compound?
**A.** not significant differences

**Q.** What about the “time on the rotarod more than mice treated with water (latency to fall)” value [2, 7] of the same compound?
**A.** around 90 seconds

**Q.** And the “expression of TNFα RNA in the brain” value [3]?
**A.** reduces the expression of TNFα RNA in the brain

**Q.** And the “levels of IL-18 in the ventral midbrain (VM)” value [4, 8]?
**A.** no changes associated to dapansutrile

**Q.** What about the “reduction in the levels of IL-18 in the striatum (St) versus MPTP mice treated with saline” value [4, 8] of the same compound?
**A.** 15%

**Q.** And the “levels of IL-18 in the brain in comparison with mice treated with water” value ([4]; 200 mg/kg oral gavage, striatum, three days after MPTP)?
**A.** reduced the levels of IL-18 in the brain

**Q.** And the “levels of IL-1β in the ventral midbrain (VM)” value [5]?
**A.** no changes associated to dapansutrile

**Q.** What about the “reduction of levels of IL-1β in the striatum (St)” value [5] of the same compound?
**A.** 24%

From patent publication US20240269104A1, “METHOD FOR TREATING PARKINSON'S DISEASE” (Olatec Therapeutics, Inc., priority 2021, published 2024)
